Laboratory results from US9486506B2 (Novo Nordisk A/S, priority 2011, dated 2016).
Numbered stars: 1 amine (or outer) side, 2 acyl side, 3 side chain; on linkers, the order of the positions; unused ones are H or OH. Side chains are listed from the residue outwards. Peptide text beside a SMILES is read from it. * marks the point of attachment. C18 diacid = O=C(O)CCCCCCCCCCCCCCCCC(=O)*; γGlu = O=C(O)[C@H](CCC(=O)[*:2])N[*:1]; AEEA = NCCOCCOCC(=O)O

Target: T1, glucagon receptor (Homo sapiens, UniProt P47871)
T1 construct: expressed in transfected cells
T1 sequence (P47871 26-477): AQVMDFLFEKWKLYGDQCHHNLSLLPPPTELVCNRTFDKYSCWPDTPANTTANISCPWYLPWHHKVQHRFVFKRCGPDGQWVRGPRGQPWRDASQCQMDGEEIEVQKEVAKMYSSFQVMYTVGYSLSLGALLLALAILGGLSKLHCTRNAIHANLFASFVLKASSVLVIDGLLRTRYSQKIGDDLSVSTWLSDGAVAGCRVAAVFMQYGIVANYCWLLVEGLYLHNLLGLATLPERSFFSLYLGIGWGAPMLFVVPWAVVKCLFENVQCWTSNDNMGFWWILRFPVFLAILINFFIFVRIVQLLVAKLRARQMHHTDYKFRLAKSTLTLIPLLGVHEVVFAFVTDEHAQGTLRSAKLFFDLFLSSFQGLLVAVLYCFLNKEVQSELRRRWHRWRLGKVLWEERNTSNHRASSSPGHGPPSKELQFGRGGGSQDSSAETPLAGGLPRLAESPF
Experiment: Assay (I) Glucagon activity (cAMP biosensor, FLIPR)
Type: cell-based

Structure (SMILES) | EC50 [nM]
CC[C@H](C)[C@H](NC(=O)[C@H](CC(N)=O)NC(=O)[C@H](CC(C)C)NC(=O)[C@H](CC(C)C)NC(=O)[C@H](Cc1c[nH]c2ccccc12)NC(=O)[C@H](CCCCNC(=O)CC[C@H](NC(=O)COCCOCCNC(=O)COCCOCCNC(=O)CC[C@H](NC(=O)CCCCCCCCCCCCCCCCC(=O)O)C(=O)O)C(=O)O)NC(=O)[C@@H](NC(=O)[C@H](Cc1ccccc1)NC(=O)[C@H](CC(=O)O)NC(=O)[C@H](CCC(N)=O)NC(=O)[C@H](C)NC(=O)[C@H](CCCNC(=N)N)NC(=O)[C@H](CCCNC(=N)N)NC(=O)[C@@H](NC(=O)[C@H](CC(=O)O)NC(=O)[C@H](CC(C)C)NC(=O)[C@H](Cc1ccc(O)cc1)NC(=O)[C@H](CCCCN)NC(=O)[C@H](CO)NC(=O)[C@H](Cc1ccc(O)cc1)NC(=O)[C@H](CC(=O)O)NC(=O)[C@H](CO)NC(=O)[C@@H](NC(=O)[C@H](Cc1ccccc1)NC(=O)[C@@H](NC(=O)CNC(=O)[C@H](CCC(N)=O)NC(=O)[C@H](CO)NC(=O)[C@@H](N)Cc1c[nH]cn1)[C@@H](C)O)[C@@H](C)O)[C@@H](C)O)C(C)C)C(=O)O [Example 35, N^ε24-[(4S)-4-carboxy-4-[[2-[2-[2-[[2-[2-[2-[[(4S)-4-carboxy-4-(17-carboxyheptadecanoylamino)butanoyl]amino]ethoxy]ethoxy]acetyl]amino]ethoxy]ethoxy]acetyl]amino]butanoyl]-[Thr16,Lys24,Leu27,Ile29]-Glucagon] | 0.413
CC(C)C[C@H](NC(=O)[C@H](Cc1c[nH]c2ccccc12)NC(=O)[C@H](CCCCNC(=O)CC[C@H](NC(=O)COCCOCCNC(=O)COCCOCCNC(=O)CC[C@H](NC(=O)CCCCCCCCCCCCCCCCC(=O)O)C(=O)O)C(=O)O)NC(=O)[C@@H](NC(=O)[C@H](Cc1ccccc1)NC(=O)[C@H](CCC(=O)O)NC(=O)[C@H](CCC(N)=O)NC(=O)[C@H](C)NC(=O)[C@H](CCCNC(=N)N)NC(=O)[C@H](CCCNC(=N)N)NC(=O)[C@@H](NC(=O)[C@H](CC(=O)O)NC(=O)[C@H](CC(C)C)NC(=O)[C@H](Cc1ccc(O)cc1)NC(=O)[C@H](CCCCN)NC(=O)[C@H](CO)NC(=O)[C@H](Cc1ccc(O)cc1)NC(=O)[C@H](CC(=O)O)NC(=O)[C@H](CO)NC(=O)[C@@H](NC(=O)[C@H](Cc1ccccc1)NC(=O)[C@@H](NC(=O)CNC(=O)[C@H](CCC(N)=O)NC(=O)[C@H](CO)NC(=O)[C@@H](N)Cc1c[nH]cn1)[C@@H](C)O)[C@@H](C)O)[C@@H](C)O)C(C)C)C(=O)N[C@@H](CC(C)C)C(=O)N[C@@H](CC(N)=O)C(=O)N[C@H](C(=O)O)C(C)C [Example 36, N^ε24-[(4S)-4-carboxy-4-[[2-[2-[2-[[2-[2-[2-[[(4S)-4-carboxy-4-(17-carboxyheptadecanoylamino)butanoyl]amino]ethoxy]ethoxy]acetyl]amino]ethoxy]ethoxy]acetyl]amino]butanoyl]-[Thr16,Glu21,Lys24,Leu27,Val29]-Glucagon] (H-HSQGTFTSDYSKYLDTRRAQEFVK([γGlu-AEEA-AEEA-γGlu-C18 diacid])WLLNV-OH) | 0.12
CC(C)C[C@H](NC(=O)[C@H](CC(N)=O)NC(=O)[C@H](CC(C)C)NC(=O)[C@H](CC(C)C)NC(=O)[C@H](Cc1c[nH]c2ccccc12)NC(=O)[C@H](CCCCNC(=O)CC[C@H](NC(=O)COCCOCCNC(=O)COCCOCCNC(=O)CC[C@H](NC(=O)CCCCCCCCCCCCCCCCC(=O)O)C(=O)O)C(=O)O)NC(=O)[C@@H](NC(=O)[C@H](Cc1ccccc1)NC(=O)[C@H](CCC(=O)O)NC(=O)[C@H](CCC(N)=O)NC(=O)[C@H](C)NC(=O)[C@H](CCCNC(=N)N)NC(=O)[C@H](CCCNC(=N)N)NC(=O)[C@@H](NC(=O)[C@H](CC(=O)O)NC(=O)[C@H](CC(C)C)NC(=O)[C@H](Cc1ccc(O)cc1)NC(=O)[C@H](CCCCN)NC(=O)[C@H](CO)NC(=O)[C@H](Cc1ccc(O)cc1)NC(=O)[C@H](CC(=O)O)NC(=O)[C@H](CO)NC(=O)[C@@H](NC(=O)[C@H](Cc1ccccc1)NC(=O)[C@@H](NC(=O)CNC(=O)[C@H](CCC(N)=O)NC(=O)[C@H](CO)NC(=O)[C@@H](N)Cc1c[nH]cn1)[C@@H](C)O)[C@@H](C)O)[C@@H](C)O)C(C)C)C(=O)O [Example 37, N^ε24-[(4S)-4-carboxy-4-[[2-[2-[2-[[2-[2-[2-[[(4S)-4-carboxy-4-(17-carboxyheptadecanoylamino)butanoyl]amino]ethoxy]ethoxy]acetyl]amino]ethoxy]ethoxy]acetyl]amino]butanoyl]-[Thr16,Glu21,Lys24,Leu27,Leu29]-Glucagon] (H-HSQGTFTSDYSKYLDTRRAQEFVK([γGlu-AEEA-AEEA-γGlu-C18 diacid])WLLNL-OH) | 0.183
CC(C)C[C@H](NC(=O)[C@H](CC(=O)O)NC(=O)[C@H](CC(C)C)NC(=O)[C@H](Cc1ccc(O)cc1)NC(=O)[C@H](CCCNC(=N)N)NC(=O)[C@H](CO)NC(=O)[C@H](Cc1ccc(O)cc1)NC(=O)[C@H](CC(=O)O)NC(=O)[C@H](CO)NC(=O)[C@@H](NC(=O)[C@H](Cc1ccccc1)NC(=O)[C@@H](NC(=O)CNC(=O)[C@H](CCC(N)=O)NC(=O)[C@H](CO)NC(=O)[C@@H](N)Cc1c[nH]cn1)[C@@H](C)O)[C@@H](C)O)C(=O)N[C@@H](CCCNC(=N)N)C(=O)N[C@@H](CCCNC(=N)N)C(=O)N[C@@H](C)C(=O)N[C@@H](CCC(N)=O)C(=O)N[C@@H](CCC(=O)O)C(=O)N[C@@H](Cc1ccccc1)C(=O)N[C@H](C(=O)N[C@@H](CCCCNC(=O)CC[C@H](NC(=O)CC[C@H](NC(=O)COCCOCCNC(=O)COCCOCCNC(=O)CC[C@H](NC(=O)CCCCCCCCCCCCCCCCC(=O)O)C(=O)O)C(=O)O)C(=O)O)C(=O)N[C@@H](Cc1c[nH]c2ccccc12)C(=O)N[C@@H](CC(C)C)C(=O)N[C@@H](CC(C)C)C(=O)N[C@@H](CO)C(=O)N[C@H](C(=O)O)[C@@H](C)O)C(C)C [Example 46, N^ε24-[(4S)-4-carboxy-4-[[(4S)-4-carboxy-4-[[2-[2-[2-[[2-[2-[2-[[(4S)-4-carboxy-4-(17-carboxyheptadecanoylamino)butanoyl]amino]ethoxy]ethoxy]acetyl]amino]ethoxy]ethoxy]acetyl]amino]butanoyl]amino]butanoyl]-[Arg12,Leu16,Glu21,Lys24,Leu27,Ser28]-Glucagon] (H-HSQGTFTSDYSRYLDLRRAQEFVK([γGlu-γGlu-AEEA-AEEA-γGlu-C18 diacid])WLLST-OH) | 0.095
CC(C)C[C@H](NC(=O)[C@H](CC(=O)O)NC(=O)[C@H](CC(C)C)NC(=O)[C@H](Cc1ccc(O)cc1)NC(=O)[C@H](CCCNC(=N)N)NC(=O)[C@H](CO)NC(=O)[C@H](Cc1ccc(O)cc1)NC(=O)[C@H](CC(=O)O)NC(=O)[C@H](CO)NC(=O)[C@@H](NC(=O)[C@H](Cc1ccccc1)NC(=O)[C@@H](NC(=O)CNC(=O)[C@H](CCC(N)=O)NC(=O)[C@H](CO)NC(=O)[C@@H](N)Cc1c[nH]cn1)[C@@H](C)O)[C@@H](C)O)C(=O)N[C@@H](CCCNC(=N)N)C(=O)N[C@@H](CCCNC(=N)N)C(=O)N[C@@H](C)C(=O)N[C@@H](CCC(N)=O)C(=O)N[C@@H](CC(=O)O)C(=O)N[C@@H](Cc1ccccc1)C(=O)N[C@H](C(=O)N[C@@H](CCCCNC(=O)CC[C@H](NC(=O)CC[C@H](NC(=O)COCCOCCNC(=O)COCCOCCNC(=O)CC[C@H](NC(=O)CCCCCCCCCCCCCCCCC(=O)O)C(=O)O)C(=O)O)C(=O)O)C(=O)N[C@@H](Cc1c[nH]c2ccccc12)C(=O)N[C@@H](CC(C)C)C(=O)N[C@@H](CCC(=O)O)C(=O)N[C@@H](CO)C(=O)N[C@H](C(=O)O)[C@@H](C)O)C(C)C [Example 47, N^ε24-[(4S)-4-carboxy-4-[[(4S)-4-carboxy-4-[[2-[2-[2-[[2-[2-[2-[[(4S)-4-carboxy-4-(17-carboxyheptadecanoylamino)butanoyl]amino]ethoxy]ethoxy]acetyl]amino]ethoxy]ethoxy]acetyl]amino]butanoyl]amino]butanoyl]-[Arg12,Leu16,Lys24,Glu27,Ser28]-Glucagon] (H-HSQGTFTSDYSRYLDLRRAQDFVK([γGlu-γGlu-AEEA-AEEA-γGlu-C18 diacid])WLEST-OH) | 0.136
CC(C)C[C@H](NC(=O)[C@H](CC(=O)O)NC(=O)[C@H](CC(C)C)NC(=O)[C@H](Cc1ccc(O)cc1)NC(=O)[C@H](CCCNC(=N)N)NC(=O)[C@H](CO)NC(=O)[C@H](Cc1ccc(O)cc1)NC(=O)[C@H](CC(=O)O)NC(=O)[C@H](CO)NC(=O)[C@@H](NC(=O)[C@H](Cc1ccccc1)NC(=O)[C@@H](NC(=O)CNC(=O)[C@H](CCC(N)=O)NC(=O)[C@H](CO)NC(=O)[C@@H](N)Cc1c[nH]cn1)[C@@H](C)O)[C@@H](C)O)C(=O)N[C@@H](CCCNC(=N)N)C(=O)N[C@@H](CCCNC(=N)N)C(=O)N[C@@H](C)C(=O)N[C@@H](CCC(N)=O)C(=O)N[C@@H](CC(=O)O)C(=O)N[C@@H](Cc1ccccc1)C(=O)N[C@H](C(=O)N[C@@H](CCCCNC(=O)CC[C@H](NC(=O)CC[C@H](NC(=O)COCCOCCNC(=O)COCCOCCNC(=O)CC[C@H](NC(=O)CCCCCCCCCCCCCCCCC(=O)O)C(=O)O)C(=O)O)C(=O)O)C(=O)N[C@@H](Cc1c[nH]c2ccccc12)C(=O)N[C@@H](CC(C)C)C(=O)N[C@@H](CC(C)C)C(=O)N[C@@H](CCC(N)=O)C(=O)N[C@H](C(=O)O)[C@@H](C)O)C(C)C [Example 48, N^ε24-[(4S)-4-carboxy-4-[[(4S)-4-carboxy-4-[[2-[2-[2-[[2-[2-[2-[[(4S)-4-carboxy-4-(17-carboxyheptadecanoylamino)butanoyl]amino]ethoxy]ethoxy]acetyl]amino]ethoxy]ethoxy]acetyl]amino]butanoyl]amino]butanoyl]-[Arg12,Leu16,Lys24,Leu27,Gln28]-Glucagon] (H-HSQGTFTSDYSRYLDLRRAQDFVK([γGlu-γGlu-AEEA-AEEA-γGlu-C18 diacid])WLLQT-OH) | 0.204
